How the values were obtained:
Format in all cases: cell-based
MCF-7 cells = assay: SRB assay, breast cancer cell line MCF-7
Procedure: To determine the effect of the combination treatment of omeprazole (KN510), a carnitine acylcarnitine carrier inhibitor, and thioridazine (KN714), a peroxisome beta-oxidation inhibitor, on cancer cell growth, the extent of cancer cell death was determined using the SRB assay (Sulforhodamine B colorimetric assay), and the degree of cancer cell growth was analyzed relative to the control (100%). As a comparison, omeprazole (KN510) and trimetazidine (KN713), a 3-ketoacyl CoA thiolase inhibitor, were co-treated.
First, a pancreatic cancer cell line, MIA PaCa-2, was prepared, and cells (100 μl) were inoculated into 96-well cell culture plates at plating densities ranging from 5,000 to 20,000 cells/well, depending on the doubling time of each cell line. After cell inoculation, 96-well cell culture plates were incubated for 24 hours before the addition of experimental drugs. MIA PaCa2 cells were treated with omeprazole (KN510) at concentrations of 10^−8 M, 10^−7 M, 10^−6 M, 10^−5 M, 10^−4 M, and 10^−3 M, thioridazine (KN714) at concentrations of 10^−10 M, 10^−9 M, 10^−8M, 10^−7 M, 10^−6 M, and 10^−5 M, and trimetazidine (KN713) at concentrations of 10^−7 M, 10^−6 M, 10^−5 M, 10^−4 M, 10^−3 M, and 10^−2 M, respectively.
(§1) The cells were then incubated in a CO2 incubator for 48 hours, after which the assay was terminated by the addition of cold TCA. Cells were fixed in situ by gently adding 50 μl of cold 50% (w/v) TCA (final concentration: 10% TCA) and incubated at 4° C. for 60 min. The supernatant was discarded, and the plate was washed five times with distilled water and air dried. Sulforhodamine B (SRB) solution (100 μl) of 0.4% (w/v) in 1% acetic acid was added to each well, and the plate was left at room temperature for 10 min. After staining, unbound dye was removed by washing five times with 1% acetic acid, and the plate was air-dried. The bound dye was then solubilized with 10 mM trizma base, and the absorbance was recorded at 515 nm using an automated plate reader.
Based on Table 1 above and GI50 values, omeprazole (KN510) and/or thioridazine (KN714) concentrations were added to each well such that the concentrations were as shown in the following groups, and then cancer cell death was measured in the same manner as in Examples 1-1 above. • 1) Control, • 2) Thioridazine (KN714) 5 μM alone treatment group, • 3) Thioridazine (KN714) 10 μM alone treatment group, • 4) Omeprazole (KN510) 200 μM alone treatment group, • 5) Omeprazole (KN510) 200 μM+thioridazine (KN714) 5 μM combination treatment group, • 6) Omeprazole (KN510) 200 μM+thioridazine (KN714) 10 μM combination treatment group.
When the anticancer activity of two compounds in combination is greater than the simple sum of the anticancer activity of the individual compounds (expected activity), this is called synergistic. The predicted synergistic activity of a combination of the present invention can be calculated using the Colby Equation in Equation 1 (S.R. Colby, Weeds, 1967, pp. 15, 20-22): […]
In the present invention, the actual measure of anti-cancer activity of the combination treatment was the inhibition rate of cancer cell growth (%), and the predicted value (E) of the combination treatment was measured by substituting it into the above Colby Equation. If the actual value is greater than the predicted value, it can be judged that there is a synergistic effect, and in this invention, the predicted value calculated by the Colby Equation and the actual value were compared to further verify the synergistic effect of the combination.
Experiments were performed using the breast cancer cell lines MCF-7 cells (1.2×10^4 cells/well) and MDA-MB-231 cells (8.0×10^3 cells/well) in the same manner as in Examples 1-2 and 1-3 above.

SK-MEL-5 = assay: SRB assay, melanoma cell line SK-MEL-5
Procedure: as §1, with “As a comparison, omeprazole (KN510) and trimetazidine (KN713), a 3-ketoacyl CoA thiolase inhibitor, were co-treated. […] After cell inoculation, 96-well cell culture plates were incubated for 24 hours before the addition of experimental drugs. […] The cells” for “The cells”, “plate reader. […] The predicted synergistic activity of a combination of the present invention can be calculated using the Colby Equation in Equation 1 (S.R. Colby, Weeds, 1967, pp. 15, 20-22): In the present invention, the actual measure of anti-cancer activity of the combination treatment was the inhibition rate of cancer cell growth (%), and the predicted value (E) of the combination treatment was measured by substituting it into the above Colby Equation.” for “plate reader.”

SK-OV-3 cells = assay: SRB assay, ovarian cancer cells SK-OV-3
Procedure: as §1, with “As a comparison, omeprazole (KN510) and trimetazidine (KN713), a 3-ketoacyl CoA thiolase inhibitor, were co-treated. […] After cell inoculation, 96-well cell culture plates were incubated for 24 hours before the addition of experimental drugs. […] The cells” for “The cells”, “plate reader. […] The predicted synergistic activity of a combination of the present invention can be calculated using the Colby Equation in Equation 1 (S.R. Colby, Weeds, 1967, pp. 15, 20-22): In the present invention, the actual measure of anti-cancer activity of the combination treatment was the inhibition rate of cancer cell growth (%), and the predicted value (E) of the combination treatment was measured by substituting it into the above Colby Equation.” for “plate reader.”

DU-145 cells = assay: SRB assay, prostate cancer cells DU-145
Procedure: as §1, with “As a comparison, omeprazole (KN510) and trimetazidine (KN713), a 3-ketoacyl CoA thiolase inhibitor, were co-treated. […] After cell inoculation, 96-well cell culture plates were incubated for 24 hours before the addition of experimental drugs. […] The cells” for “The cells”, “plate reader. […] The predicted synergistic activity of a combination of the present invention can be calculated using the Colby Equation in Equation 1 (S.R. Colby, Weeds, 1967, pp. 15, 20-22): In the present invention, the actual measure of anti-cancer activity of the combination treatment was the inhibition rate of cancer cell growth (%), and the predicted value (E) of the combination treatment was measured by substituting it into the above Colby Equation.” for “plate reader.”

PANC-1 cells = assay: SRB assay, pancreatic cancer cell line PANC-1
Procedure: as §1, with “As a comparison, omeprazole (KN510) and trimetazidine (KN713), a 3-ketoacyl CoA thiolase inhibitor, were co-treated. […] After cell inoculation, 96-well cell culture plates were incubated for 24 hours before the addition of experimental drugs. […] The cells” for “The cells”, “plate reader. […] The predicted synergistic activity of a combination of the present invention can be calculated using the Colby Equation in Equation 1 (S.R. Colby, Weeds, 1967, pp. 15, 20-22): In the present invention, the actual measure of anti-cancer activity of the combination treatment was the inhibition rate of cancer cell growth (%), and the predicted value (E) of the combination treatment was measured by substituting it into the above Colby Equation.” for “plate reader.”

CAKI-1 cells = assay: SRB assay, renal cell carcinoma cell line CAKI-1
Procedure: as §1, with “As a comparison, omeprazole (KN510) and trimetazidine (KN713), a 3-ketoacyl CoA thiolase inhibitor, were co-treated. […] After cell inoculation, 96-well cell culture plates were incubated for 24 hours before the addition of experimental drugs. […] The cells” for “The cells”, “plate reader. […] The predicted synergistic activity of a combination of the present invention can be calculated using the Colby Equation in Equation 1 (S.R. Colby, Weeds, 1967, pp. 15, 20-22): In the present invention, the actual measure of anti-cancer activity of the combination treatment was the inhibition rate of cancer cell growth (%), and the predicted value (E) of the combination treatment was measured by substituting it into the above Colby Equation.” for “plate reader.”

AGS cells = assay: SRB assay, stomach cancer cell line AGS
Procedure: as §1, with “As a comparison, omeprazole (KN510) and trimetazidine (KN713), a 3-ketoacyl CoA thiolase inhibitor, were co-treated. […] After cell inoculation, 96-well cell culture plates were incubated for 24 hours before the addition of experimental drugs. […] The cells” for “The cells”, “plate reader. […] The predicted synergistic activity of a combination of the present invention can be calculated using the Colby Equation in Equation 1 (S.R. Colby, Weeds, 1967, pp. 15, 20-22): In the present invention, the actual measure of anti-cancer activity of the combination treatment was the inhibition rate of cancer cell growth (%), and the predicted value (E) of the combination treatment was measured by substituting it into the above Colby Equation.” for “plate reader.”

MKN-28 cells = assay: SRB assay, stomach cancer cell line MKN-28
Procedure: as §1, with “As a comparison, omeprazole (KN510) and trimetazidine (KN713), a 3-ketoacyl CoA thiolase inhibitor, were co-treated. […] After cell inoculation, 96-well cell culture plates were incubated for 24 hours before the addition of experimental drugs. […] The cells” for “The cells”, “plate reader. […] The predicted synergistic activity of a combination of the present invention can be calculated using the Colby Equation in Equation 1 (S.R. Colby, Weeds, 1967, pp. 15, 20-22): In the present invention, the actual measure of anti-cancer activity of the combination treatment was the inhibition rate of cancer cell growth (%), and the predicted value (E) of the combination treatment was measured by substituting it into the above Colby Equation.” for “plate reader.”

[1] = Homo sapiens, KN510 100 μM, read-out: Inhibition rate of cancer cell growth (%) (Actual value)
[2] = Homo sapiens, KN510 200 μM, read-out: Inhibition rate of cancer cell growth (%) (Actual value)
[3] = Homo sapiens, KN714 5 μM, read-out: Inhibition rate of cancer cell growth (%) (Actual value)
[4] = Homo sapiens, KN714 10 μM, read-out: Inhibition rate of cancer cell growth (%) (Actual value)

COc1ccc2[nH]c([S+]([O-])Cc3ncc(C)c(OC)c3C)nc2c1 (stereo not shown) [KN510, omeprazole]
inhibition at 100 µM (MCF-7 cells; Homo sapiens, MCF7, KN510 100 μM, read-out: Inhibition rate of cancer cell growth (%) (Actual value)): 34.7%
inhibition at 200 µM (MCF-7 cells; Homo sapiens, MCF7, KN510 200 μM, read-out: Inhibition rate of cancer cell growth (%) (Actual value)): 50%
Cancer cell growth rate Average (%) (MCF-7 cells; KN510 100 μM): 65.30%
Cancer cell growth rate Average (%) (MCF-7 cells; KN510 200 μM): 49.96%
inhibition at 100 µM (SK-MEL-5; [1]): 34.6%
inhibition at 200 µM (SK-MEL-5; [2]): 53.9%
Cancer cell growth rate Average (%) (SK-MEL-5; KN510 100 μM): 65.42%
Cancer cell growth rate Average (%) (SK-MEL-5; KN510 200 μM): 46.11%
inhibition at 100 µM (SK-OV-3 cells; [1]): 11.5%
inhibition at 200 µM (SK-OV-3 cells; [2]): 59.8%
Cancer cell growth rate Average (%) (SK-OV-3 cells; KN510 100 μM): 88.53%
Cancer cell growth rate Average (%) (SK-OV-3 cells; KN510 200 μM): 40.18%
inhibition at 100 µM (DU-145 cells; [1]): 50.4%
inhibition at 200 µM (DU-145 cells; [2]): 62.9%
Cancer cell growth rate Average (%) (DU-145 cells; KN510 100 μM): 49.59%
Cancer cell growth rate Average (%) (DU-145 cells; KN510 200 μM): 37.08%
inhibition at 100 µM (PANC-1 cells; [1]): 55.5%
inhibition at 200 µM (PANC-1 cells; [2]): 89%
Cancer cell growth rate Average (%) (PANC-1 cells; KN510 100 μM): 44.47%
Cancer cell growth rate Average (%) (PANC-1 cells; KN510 200 μM): 10.96%
inhibition at 100 µM (CAKI-1 cells; [1]): 32%
inhibition at 200 µM (CAKI-1 cells; [2]): 72.9%
Cancer cell growth rate Average (%) (CAKI-1 cells; KN510 100 μM): 67.99%
Cancer cell growth rate Average (%) (CAKI-1 cells; KN510 200 μM): 27.11%
inhibition at 100 µM (AGS cells; [1]): 39.6%
inhibition at 200 µM (AGS cells; [2]): 69.5%
Cancer cell growth rate Average (%) (AGS cells; KN510 100 μM): 60.39%
Cancer cell growth rate Average (%) (AGS cells; KN510 200 μM): 30.51%
inhibition at 100 µM (MKN-28 cells; [1]): 50.2%
inhibition at 200 µM (MKN-28 cells; [2]): 74.8%
Cancer cell growth rate Average (%) (MKN-28 cells; KN510 100 μM): 49.80%
Cancer cell growth rate Average (%) (MKN-28 cells; KN510 200 μM): 25.20%

CSc1ccc2c(c1)N(CCC1CCCCN1C)c1ccccc1S2 (stereo not shown) [KN714, 10-[2-(1-methyl-2-piperidyl)ethyl]-2-(methylthio)phenothiazine]
inhibition at 5 µM (MCF-7 cells; Homo sapiens, MCF7, KN714 5 μM, read-out: Inhibition rate of cancer cell growth (%) (Actual value)): 1.49%
inhibition at 10 µM (MCF-7 cells; Homo sapiens, MCF7, KN714 10 μM, read-out: Inhibition rate of cancer cell growth (%) (Actual value)): 60.3%
Cancer cell growth rate Average (%) (MCF-7 cells; KN714 5 μM): 98.51%
Cancer cell growth rate Average (%) (MCF-7 cells; KN714 10 μM): 39.69%
inhibition at 5 µM (SK-MEL-5; [3]): 19.3%
inhibition at 10 µM (SK-MEL-5; [4]): 124%
Cancer cell growth rate Average (%) (SK-MEL-5; KN714 5 μM): 80.69%
Cancer cell growth rate Average (%) (SK-MEL-5; KN714 10 μM): −23.56%
inhibition at 5 µM (SK-OV-3 cells; [3]): 7.82%
inhibition at 10 µM (SK-OV-3 cells; [4]): 37.6%
Cancer cell growth rate Average (%) (SK-OV-3 cells; KN714 5 μM): 92.18%
Cancer cell growth rate Average (%) (SK-OV-3 cells; KN714 10 μM): 62.36%
inhibition at 5 µM (DU-145 cells; [3]): 24.5%
inhibition at 10 µM (DU-145 cells; [4]): 44.7%
Cancer cell growth rate Average (%) (DU-145 cells; KN714 5 μM): 75.49%
Cancer cell growth rate Average (%) (DU-145 cells; KN714 10 μM): 55.27%
inhibition at 5 µM (PANC-1 cells; [3]): 10.2%
inhibition at 10 µM (PANC-1 cells; [4]): 70%
Cancer cell growth rate Average (%) (PANC-1 cells; KN714 5 μM): 89.85%
Cancer cell growth rate Average (%) (PANC-1 cells; KN714 10 μM): 30.04%
inhibition at 5 µM (CAKI-1 cells; [3]): 24%
inhibition at 10 µM (CAKI-1 cells; [4]): 49.4%
Cancer cell growth rate Average (%) (CAKI-1 cells; KN714 5 μM): 75.99%
Cancer cell growth rate Average (%) (CAKI-1 cells; KN714 10 μM): 50.59%
inhibition at 5 µM (AGS cells; [3]): 32.9%
inhibition at 10 µM (AGS cells; [4]): 84.5%
Cancer cell growth rate Average (%) (AGS cells; KN714 5 μM): 67.13%
Cancer cell growth rate Average (%) (AGS cells; KN714 10 μM): 15.46%
inhibition at 5 µM (MKN-28 cells; [3]): 8.19%
inhibition at 10 µM (MKN-28 cells; [4]): 64%
Cancer cell growth rate Average (%) (MKN-28 cells; KN714 5 μM): 91.81%
Cancer cell growth rate Average (%) (MKN-28 cells; KN714 10 μM): 36.04%
